In PubChem BioAssay (NCI):
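Exposure lasted 48 hours, with cells grown in 96-well plates and compounds tested at five concentrations. At the GI50, growth is halved. TGI denotes the concentration required for complete inhibition of growth.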

The compounds below were run on MDA-MB-468 breast (assay: NCI-60 cell line screen, 48 h).
For `O=C(/C=C/c1cc(Cl)ccc1Cl)Nc1ncc(Cc2ccc(Cl)cc2)s1`, the GI50 was 277 nM and the TGI was 3080 nM.
Work on `Cc1nc(Sc2nc3ccc([N+](=O)[O-])cc3s2)sc1C` yielded a GI50 of 1620 nM and a TGI of 3590 nM.
For `CCOc1ccc(C(C)=O)cc1NC(=O)c1cccc(-c2nnn(CC)n2)c1`, the GI50 was 557 nM and the TGI was 6070 nM.
In the case of `CC/C(Cc1ccccc1)=C(/c1ccc(O)cc1)c1ccc(OCCN2CCCC2)cc1`, the GI50 is reported as 1660 nM and the TGI is reported as 3280 nM.
For `CCCCN1C(=O)/C(=c2\sc3n(c2=O)C2C(NN=3)N(CC)C(=O)N2CC)c2ccccc21` (stereo not drawn), the GI50 was 361 nM and the TGI was 2390 nM.
In the case of `CCCCCCNC(=O)Oc1ccc(/C(=C(\C)c2ccc(Cl)cc2)c2ccc(OCCN(C)C)cc2)cc1`, the GI50 is reported as 1590 nM and the TGI is reported as 3120 nM.
`CC(C)(C)c1nc(-c2cccc(NS(=O)(=O)c3c(F)cccc3F)c2F)c(-c2ccnc(N)n2)s1` showed a GI50 of 31700 nM and a TGI greater than 100000 nM.
`NC(CSC(c1ccccc1)(c1ccccc1)c1ccc(F)cc1)C(=O)O` (stereo not drawn) gave a GI50 of 233 nM.
For `CC(=O)O[C@H](C[C@H](C(C)C)N(C)C(=O)[C@@H](NC(=O)[C@H]1CCCCN1C)C(C)C)c1cccc(C(=O)N[C@@H](Cc2ccccc2)C[C@H](C)C(=O)O)n1`, the GI50 was 5.39 nM and the TGI was 102 nM.
Work on `COc1ccc(-c2nsc3c2NC(=O)CC3c2cccc(Cl)c2)cc1` (stereo not drawn) yielded a GI50 of 735 nM and a TGI of 11000 nM.
Compound `CCOC(=O)C#Cc1c(C(=O)OCC)nnn1[C@@H]1O[C@H](CO)[C@H]2OC3(CCCCC3)O[C@H]21` has a GI50 of 1780 nM and a TGI of 3890 nM.
In the case of `CCN(CC)c1ccc(/C=N/NC(=O)CSc2nc3ccccc3c(=O)n2Cc2ccc(S(N)(=O)=O)cc2)c(O)c1`, the GI50 is reported as 524 nM and the TGI is reported as 5030 nM.
Work on `COc1ccc2c(c1)O/C(=C\c1cccc(OCC(=O)Nc3nc(C)c(C)s3)c1)C2=O` yielded a GI50 of 274 nM and a TGI of 2120 nM.
Compound `COc1cc(-c2nccc3cc4c(cc23)OCO4)cc(OC)c1OC` has a GI50 of 1620 nM and a TGI of 6240 nM.
`Cc1noc(C)c1-c1cnc2c(-c3ccc(C(=O)O)cc3)cn([C@@H](C)c3ccccn3)c2c1` showed a GI50 of 309 nM and a TGI of 27200 nM.
Work on `O=C(Oc1ccccc1)C(Br)C(Br)c1ccccc1` (stereo not drawn) yielded a GI50 of 1610 nM and a TGI of 3370 nM.
Compound `COc1ccc(-c2n[nH]nc2-c2cc(OC)c3c(c2)OCO3)cc1` has a GI50 of 23 nM and a TGI of 42600 nM.
Compound `C[C@H](NC(=O)c1c(C(F)F)nn(C)c1Oc1cccc(C(F)(F)F)c1)c1ccc(C(=O)O)cc1` has a GI50 greater than 100000 nM and a TGI greater than 100000 nM.
Compound `CCN(CC)c1ccc2nc3ccc(N=Nc4ccc(O)cc4)cc3[n+](-c3ccccc3)c2c1` has a GI50 of 1470 nM and a TGI of 3610 nM.
`Cn1cc(C2=C(c3ccccc3C(F)(F)F)C(=O)NC2=O)c2ccccc21` was tested, and the GI50 was 11600 nM and the TGI was greater than 25000 nM.
With `CCc1nc2cc(/C=C/C(=O)NO)ccc2c(=O)n1CCc1ccc(OC)cc1` the GI50 was 1690 nM and the TGI was 5570 nM.
`O=C(/C=C\n1cnc(-c2cc(C(F)(F)F)cc(C(F)(F)F)c2)n1)N1CC(F)(F)C1` showed a GI50 of 697 nM and a TGI of 6190 nM.
With `NCCOc1ncccc1/C=C1\c2ccccc2-c2ccc([N+](=O)[O-])cc21` the GI50 was 71.2 nM and the TGI was 351 nM.
`COc1cccc(NC(=O)c2sc3nc4c(cc3c2N)C(O)CCC4)c1` (stereo not drawn) was tested, and the GI50 was 88.1 nM and the TGI was 6700 nM.
`COc1cc(CN(c2ccc(C)cc2)C2OC(=O)c3ccccc32)cc(OC)c1OC` (stereo not drawn) gave a GI50 of 132 nM and a TGI of 527 nM.
`Oc1c(O)c(Cl)c(Cl)c(Cl)c1Cl` was tested, and the GI50 was 2580 nM and the TGI was 7340 nM.
`O=C(CSc1nc2sc3c(c2c(=O)n1-c1ccc(Cl)cc1)CCCC3)NNC(=O)Nc1cccc(C(F)(F)F)c1` was tested, and the GI50 was 2210 nM and the TGI was 5360 nM.
With `Cc1c(C)c2c(c(C)c1OCC(=O)O)CC[C@@](C)(CCC[C@@H](C)CCC[C@@H](C)CCCC(C)C)O2` the GI50 was 58100 nM and the TGI was 152000 nM.
In the case of `CCc1nn2ncccc2c1-c1ccnc(NC2CC2)n1`, the GI50 is reported as greater than 21200 nM and the TGI is reported as greater than 25000 nM.
`Nc1ccc(-c2ccc3ncc4ccc(=O)n(-c5cccc(C(F)(F)F)c5)c4c3c2)cn1` gave a GI50 of less than 10 nM and a TGI of 43.1 nM.
`Cn1cncc1-c1c(F)cncc1NC(=O)c1c(N)nn2cc(F)cnc12` gave a GI50 of 1960 nM and a TGI of 16200 nM.
For `COc1ccc(-c2nn3ncccc3c2-c2ccnc(Nc3ccc4c(c3)OCCO4)n2)cc1`, the GI50 was 4000 nM and the TGI was greater than 21100 nM.
Work on `COc1cc(NC(C)CCCNC(C)C)c2ncccc2c1OC` (stereo not drawn) yielded a GI50 of 25600 nM and a TGI greater than 100000 nM.
For `CN1CCN(CCCOc2cccc3nc(Nc4ccc(F)c(F)c4)ccc23)CC1`, the GI50 was 2110 nM and the TGI was 6730 nM.
`O=C(Nc1ccc2c(c1)OCCO2)C(=O)c1c[nH]c2ccccc12` was tested, and the GI50 was 1090 nM and the TGI was 20700 nM.
Work on `C=C1C(=O)O[C@H]2[C@H]1CC/C(COC(=O)NCCc1cccc(OC)c1)=C\CC[C@@]1(C)O[C@@H]21` yielded a GI50 of 850 nM and a TGI of 3270 nM.
`COc1cc(-c2cc3ncccc3c3[nH]c(=O)c4cccnc4c23)cc(OC)c1OC` gave a GI50 of 1610 nM and a TGI of 96100 nM.
Work on `COc1ccc2[nH]c(C(=O)OCc3ccc4cccc(O)c4n3)cc2c1` yielded a GI50 of 1370 nM and a TGI of 3080 nM.
Compound `O=C1Nc2ccccc2/C1=C/c1cn(CC(O)Cn2cc(/C=C3\C(=O)Nc4ccccc43)c3ccccc32)c2ccccc12` (stereo not drawn) has a GI50 of 2030 nM and a TGI of 3750 nM.
`COc1cc(Nc2ncnc(Nc3ccc4c(n3)NC(=O)C(C)(C)O4)n2)cc(OC)c1OC` was tested, and the GI50 was 522 nM and the TGI was greater than 100000 nM.
With `O=C(O)Cn1ccc2ccccc21` the GI50 was greater than 100000 nM and the TGI was greater than 100000 nM.
Compound `COc1cc2nc(-c3cccc4cccnc34)nc(NC3CCN(Cc4ccccc4)CC3)c2cc1OC` has a GI50 of 1430 nM and a TGI of 2960 nM.
